Where a name gives a salt, the structure may show the parent alone. Blank lines part the entries; values can stand above or below the molecule they belong to.
Target: 5HT3a receptor expressed in HEK-293T cells (Homo sapiens (Human), UniProt P46098)
Assay: Inhibition of Ca flux activity of 5HT3 in vitro assay
Type: cell-based
Details: calcium flux, 5HT 216 nM, approximate values
Procedure: Inhibition of Ca Flux Activity of 5HT3 In Vitro Assay
The 5HT3 antagonist activity of the compounds of the invention was determined by measuring the ability of the compounds to inhibit the calcium flux activity of […] receptor expressed in HEK-293T cells. HEK-293T cells were transfected with the 5HT3a expression construct using Xtreme Gene 9 (Roche) in 150 mm tissue culture treated plates and incubated for 24 hours at 37° C. Cells were then split and plated at a density of 60K cells/well in poly-lysine coated, black 96-well plates with clear bottoms (BD BioSciences) and incubated overnight at 37° C. Growth media was removed and cells loaded with 200 uL calcium indicator dye in HBSS containing 20 mM HEPES (Calcium 5 Assay kit, Molecular Devices) and incubated at 37° C. for 1 hour. While cells were incubating, the 10× antagonist and agonist/antagonist addition plates were made. For 10× antagonist plate: half log serial dilutions (final concentrations range from 10^−7 through 10^−10 with the bottom well a negative, no ligand control) were made from test compounds in DMSO at a 1000× concentration and then diluted to 10× in HBSS/20 mM HEPES. For addition plate: 5HT was diluted to 100× in HBSS/20 mM HEPES (final concentration in the assay—216 nM) and 15 uL was added to each well of the addition plate, 15 uL of 10× compound was also added to the addition plate, and finally 120 uL of HBSS/20 mM HEPES (for a total of 150 uL). Cells were then removed from the incubator and equilibrated to room temperature for 10 minutes, then 22.5 uL of 10× test compounds were added in triplicate to the plates and incubated at room temperature for 10 minutes (Tropisetron was used as a positive control in every assay). Test plate and addition plate were loaded into the FlexStation III (Molecular Devices), and using the fluidics, 22.5 uL compound additions were made (at t=˜17 seconds), and fluorescence was measured for 90 seconds, reading every 2.2 seconds. Data sets were analyzed as max minus min using Software Max Pro (Molecular Devices). IC50 curves were generated using non-linear regression in GraphPad Prism.

Chain of 5HT3a receptor expressed in HEK-293T cells (P46098 24-478): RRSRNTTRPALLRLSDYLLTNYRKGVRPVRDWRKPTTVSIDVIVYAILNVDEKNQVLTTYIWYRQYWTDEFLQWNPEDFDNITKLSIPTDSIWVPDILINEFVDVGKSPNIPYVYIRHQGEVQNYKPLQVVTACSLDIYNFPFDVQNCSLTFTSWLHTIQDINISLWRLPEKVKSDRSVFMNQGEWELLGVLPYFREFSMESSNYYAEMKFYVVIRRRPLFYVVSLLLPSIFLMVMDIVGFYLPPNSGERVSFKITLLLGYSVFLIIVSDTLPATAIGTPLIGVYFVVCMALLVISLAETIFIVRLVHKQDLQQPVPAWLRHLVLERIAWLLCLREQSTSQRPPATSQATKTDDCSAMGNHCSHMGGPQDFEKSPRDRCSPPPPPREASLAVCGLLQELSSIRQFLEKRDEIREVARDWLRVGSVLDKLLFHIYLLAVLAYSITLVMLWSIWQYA

Molecule: O=C(NC1C[C@H]2COC[C@@H](C1)N2)c1cn(CC(F)F)c2ncc(F)cc12 (stereo partly drawn) [Example 39, N-((1R,5S,7S)-3-oxa-9-azabicyclo[3.3.1]nonan-7-yl)-1-(2,2-difluoroethyl)-5-fluoro-1H-pyrrolo[2,3-b]pyridine-3-carboxamide, 2,2,2-trifluoroacetate]
IC50: 24.1 nM

Molecule: (1R,5S,7S)-9-methyl-3-oxa-9-azabicyclo[3.3.1]nonan-7-yl 1-(isothiazol-3-yl)-1H-indole-3-carboxylate, 2,2,2-trifluoroacetic acid salt [Example 34]
IC50: 0.74 nM

Molecule: O=C(O[C@H]1C[C@H]2COC[C@@H](C1)N2)c1cn(-c2ncco2)c2ccccc12 [Example 177, (1R,5S,7s)-3-oxa-9-azabicyclo[3.3.1]nonan-7-yl 1-(oxazol-2-yl)-1H-indole-3-carboxylate, 2,2,2-trifluoroacetic acid salt]
IC50: 3.22 nM

Molecule: CC(C)S(=O)(=O)n1cc(C(=O)NC2C[C@H]3COC[C@@H](C2)N3C)c2ccccc21 (stereo partly drawn) [Example 111, N-((1R,5S,7S)-9-methyl-d3-3-oxa-9-azabicyclo[3.3.1]nonan-7-yl)-1-(isopropylsulfonyl)-1H-indole-3-carboxamide, 2,2,2-trifluoroacetate]
IC50: 0.77 nM

Molecule: CN1C2COCC1CC(OC(=O)c1cn(-c3ccc(O)nn3)c3ccccc13)C2 [Example 169, (1R,5S,7s)-9-methyl-3-oxa-9-azabicyclo[3.3.1]nonan-7-yl 1-(6-hydroxypyridazin-3-yl)-1H-indole-3-carboxylate, 2,2,2-trifluoroacetic acid salt]
IC50: 0.598 nM

Molecule: (1R,5S,7S)-3-Oxa-9-azabicyclo[3.3.1]nonan-7-yl 1-(2,2-difluoroethyl)-5-fluoro-1H-indole-3-carboxylate 2,2,2-trifluoroacetic acid [Example 13]
IC50: 0.93 nM

Molecule: CN1[C@@H]2CC[C@H]1CC(OC(=O)c1c3n(c4ccccc14)CCCO3)C2 (stereo partly drawn) [Example 85, (1R,3R,5S)-8-methyl-8-azabicyclo[3.2.1]octan-3-yl 3,4-dihydro-2H-[1,3]oxazino[3,2-a]indole-10-carboxylate, 2,2,2-trifluoroacetate]
IC50: 1.04 nM

Molecule: CN1[C@@H]2CCC[C@H]1CC(OC(=O)c1cn(CC(F)(F)F)c3ncccc13)C2 (stereo partly drawn) [Example 103, (1R,3R,5S)-9-methyl-9-azabicyclo[3.3.1]nonan-3-yl 1-(2,2,2-trifluoroethyl)-1H-pyrrolo[2,3-b]pyridine-3-carboxylate, 2,2,2-trifluoroacetate]
IC50: 8.2 nM

Molecule: CN1[C@@H]2CC[C@H]1CC(OC(=O)c1cn(C3CCOC3)c3ccccc13)C2 (stereo partly drawn) [Example 42, (1R,3R,5S)-8-methyl-8-azabicyclo[3.2.1]octan-3-yl 1-(tetrahydrofuran-3-yl)-1H-indole-3-carboxylate, 2,2,2-trifluoroacetate]
IC50: 0.94 nM

Molecule: O=C(O[C@H]1CC[N@@]2CCO[C@@H]1C2)c1cn(CC(F)F)c2ccc(F)cc12 [Example 91, (1S,5R,6S)-4-oxa-1-azabicyclo[3.3.1]nonan-6-yl 1-(2,2-difluoroethyl)-5-fluoro-1H-indole-3-carboxylate, 2,2,2-trifluoroacetate]
IC50: > 1000 nM

Molecule: CN1[C@@H]2CC[C@H]1CC(NC(=O)c1cn(S(C)(=O)=O)c3ccccc13)C2 (stereo partly drawn) [Example 74, N-((1R,3R,5S)-8-methyl-8-azabicyclo[3.2.1]octan-3-yl)-1-(methylsulfonyl)-1H-indole-3-carboxamide, 2,2,2-trifluoroacetate]
IC50: 0.42 nM

Molecule: CN1[C@@H]2COC[C@H]1CC(NC(=O)c1cn(C(F)C(F)(F)F)c3ncccc13)C2 (stereo partly drawn) [Example 81, N-((1R,5S,7S)-9-methyl-3-oxa-9-azabicyclo[3.3.1]nonan-7-yl)-1-(1,2,2,2-tetrafluoroethyl)-1H-pyrrolo[2,3-b]pyridine-3-carboxamide, 2,2,2-trifluoroacetate]
IC50: 1.44 nM

IC50: 0.53 nM
Molecule: CN1[C@@H]2COC[C@H]1CC(NC(=O)c1cn(CC(F)(F)F)c3ccc(F)cc13)C2 (stereo partly drawn) [Example 112, 1-(2,2,2-trifluoroethyl)-5-fluoro-N-((1R,5S,7S)-9-methyl-d3-3-oxa-9-azabicyclo[3.3.1]nonan-7-yl)-1H-indole-3-carboxamide, 2,2,2-trifluoroacetate]

Molecule: CN1[C@@H]2CC[C@H]1CC(NC(=O)c1cn(CC(F)F)c3ncccc13)C2 (stereo partly drawn) [Example 76, 1-(2,2-difluoroethyl)-N-((1R,3R,5S)-8-methyl-8-azabicyclo[3.2.1]octan-3-yl)-1H-pyrrolo[2,3-b]pyridine-3-carboxamide, 2,2,2-trifluoroacetate]
IC50: 1.22 nM

Molecule: CN1[C@@H]2COC[C@H]1CC(NC(=O)c1cn(CC(F)F)c3ccc(F)cc13)C2 (stereo partly drawn) [Example 63, 1-(2,2-difluoroethyl)-5-fluoro-N-((1R,5S,7S)-9-methyl-3-oxa-9-azabicyclo[3.3.1]nonan-7-yl)-1H-indole-3-carboxamide, 2,2,2-trifluoroacetate]
IC50: 0.49 nM

Molecule: CN1[C@@H]2COC[C@H]1CC(NC(=O)c1cn(CCF)c3ccccc13)C2 (stereo partly drawn) [Example 127, 1-(2-fluoroethyl)-N-((1R,5S,7S)-9-methyl-d3-3-oxa-9-azabicyclo[3.3.1]nonan-7-yl)-1H-indole-3-carboxamide, 2,2,2-trifluoroacetate]
IC50: 0.22 nM

Molecule: CN1[C@@H]2COC[C@H]1CC(NC(=O)c1cn(CC(C)(F)F)c3ncccc13)C2 (stereo partly drawn) [Example 108, 1-(2,2-difluoropropyl)-N-((1R,5S,7S)-9-methyl-3-oxa-9-azabicyclo[3.3.1]nonan-7-yl)-1H-pyrrolo[2,3-b]pyridine-3-carboxamide, 2,2,2-trifluoroacetate]
IC50: 1.05 nM

Molecule: CN1C2CCC1CC(OC(=O)c1cn(CC(F)F)c3ccccc13)C2 [Example 40, (1R,3R,5S)-8-methyl-8-azabicyclo[3.2.1]octan-3-yl 1-(2,2-difluoroethyl)-1H-indole-3-carboxylate, 2,2,2-trifluoroacetate]
IC50: 0.78 nM

Molecule: O=C(NC1C[C@H]2COC[C@@H](C1)N2)c1nn(CC(F)F)c2ccccc12 (stereo partly drawn) [Example 65, N-((1R,5S,7S)-3-oxa-9-azabicyclo[3.3.1]nonan-7-yl)-1-(2,2-difluoroethyl)-1H-indazole-3-carboxamide, 2,2,2-trifluoroacetate]
IC50: 4.09 nM

Molecule: CN1C2COCC1CC(NC(=O)c1cn(-c3cscn3)c3ncc(F)cc13)C2 [Example 163, 5-fluoro-N-((1R,5S,7s)-9-methyl-3-oxa-9-azabicyclo[3.3.1]nonan-7-yl)-1-(thiazol-4-yl)-1H-pyrrolo[2,3-b]pyridine-3-carboxamide, 2,2,2-trifluoroacetic acid salt]
IC50: 1.81 nM

Molecule: (1R,3R,5S)-8-methyl-8-azabicyclo[3.2.1]octan-3-yl 2-chloro-1-(2,2-difluoroethyl)-1H-indole-3-carboxylate 2,2,2-trifluoroacetate [Example 4]
IC50: 1.4 nM

Molecule: CN1C2CCC1CC(OC(=O)c1nn(CCF)c3ccccc13)C2 [Example 57, (1R,3R,5S)-8-methyl-8-azabicyclo[3.2.1]octan-3-yl 1-(2-fluoroethyl)-1H-indazole-3-carboxylate, 2,2,2-trifluoroacetate]
IC50: > 1000 nM

Molecule: CN1[C@@H]2CC[C@H]1CC(OC(=O)c1c(Cl)n(CC(F)F)c3ccccc13)C2 (stereo partly drawn) [Example 43, (1R,3R,5S)-8-methyl-8-azabicyclo[3.2.1]octan-3-yl 2-chloro-1-(2,2-difluoroethyl)-1H-indole-3-carboxylate, 2,2,2-trifluoroacetate]
IC50: 1.02 nM

From US9303045B2, “5-HT3 receptor antagonists” (Takeda Pharmaceutical Company Limited, priority 2013, dated 2016)
